Assay results taken from paper PMC5240934, “Molecular Mechanism of Disease-Associated Mutations in the Pre-M1 Helix of NMDA Receptors and Potential Rescue Pharmacology” (PLoS Genetics, 2017).
Read-outs that look alike come from different tables or passages of the source.

What was measured:
Assay in all cases: two-electrode voltage clamp, Xenopus oocytes
Type in all cases: cell-based
[1] = target: T1, rat GluN1/GluN2D (Rattus norvegicus, UniProt P35439+Q62645)
T1 construct: gene Grin1; full-length subunits in pCI-neo, cRNA in Xenopus laevis oocytes; di-heteromeric tetramer
Excerpt: two-electrode voltage clamp, Xenopus oocytes on rat GluN1/GluN2D

[2] = target: T2, human GluN1/GluN2A (Homo sapiens, UniProt Q05586+Q12879, Q12879:P552R)
T2 construct: gene GRIN1; full open reading frames in pCI-neo, cRNA in Xenopus laevis oocytes; di-heteromeric tetramer
Excerpt: (§1) two-electrode voltage clamp, Xenopus oocytes on human GluN1/GluN2A

[3] = target: T3, human GluN1/GluN2A (Homo sapiens, UniProt Q05586+Q12879)
T3 construct: gene GRIN1; full open reading frames in pCI-neo, cRNA in Xenopus laevis oocytes; di-heteromeric tetramer
Excerpt: as §1

[4] = target: T4, human GluN1/GluN2A (Homo sapiens, UniProt Q05586+Q12879, Q05586:D552E)
T4 construct: gene GRIN1; full open reading frames in pCI-neo, cRNA in Xenopus laevis oocytes; di-heteromeric tetramer
Excerpt: as §1

[5] = target: T5, human GluN1/GluN2A (Homo sapiens, UniProt Q05586+Q12879, Q05586:P557R)
T5 construct: gene GRIN1; full open reading frames in pCI-neo, cRNA in Xenopus laevis oocytes; di-heteromeric tetramer
Excerpt: as §1

[6] = target: T6, human GluN1/GluN2A (Homo sapiens, UniProt Q05586+Q12879, Q12879:A548T)
T6 construct: gene GRIN1; full open reading frames in pCI-neo, cRNA in Xenopus laevis oocytes; di-heteromeric tetramer
Excerpt: as §1

[7] = target: T7, human GluN1/GluN2B (Homo sapiens, UniProt Q05586+Q13224, Q05586:D552E)
T7 construct: gene GRIN1; full open reading frames in pCI-neo, cRNA in Xenopus laevis oocytes; di-heteromeric tetramer
Excerpt: (§2) two-electrode voltage clamp, Xenopus oocytes on human GluN1/GluN2B

[8] = target: T8, human GluN1/GluN2B (Homo sapiens, UniProt Q05586+Q13224, Q13224:P553R)
T8 construct: gene GRIN1; full open reading frames in pCI-neo, cRNA in Xenopus laevis oocytes; di-heteromeric tetramer
Excerpt: as §2

[9] = target: T9, human GluN1/GluN2B (Homo sapiens, UniProt Q05586+Q13224, Q05586:P557R)
T9 construct: gene GRIN1; full open reading frames in pCI-neo, cRNA in Xenopus laevis oocytes; di-heteromeric tetramer
Excerpt: as §2

[10] = read-out: IC50 (n; max inhibition) / GluN2A-P552R

T3 sequence (Q12879 23-1464, other chains not shown): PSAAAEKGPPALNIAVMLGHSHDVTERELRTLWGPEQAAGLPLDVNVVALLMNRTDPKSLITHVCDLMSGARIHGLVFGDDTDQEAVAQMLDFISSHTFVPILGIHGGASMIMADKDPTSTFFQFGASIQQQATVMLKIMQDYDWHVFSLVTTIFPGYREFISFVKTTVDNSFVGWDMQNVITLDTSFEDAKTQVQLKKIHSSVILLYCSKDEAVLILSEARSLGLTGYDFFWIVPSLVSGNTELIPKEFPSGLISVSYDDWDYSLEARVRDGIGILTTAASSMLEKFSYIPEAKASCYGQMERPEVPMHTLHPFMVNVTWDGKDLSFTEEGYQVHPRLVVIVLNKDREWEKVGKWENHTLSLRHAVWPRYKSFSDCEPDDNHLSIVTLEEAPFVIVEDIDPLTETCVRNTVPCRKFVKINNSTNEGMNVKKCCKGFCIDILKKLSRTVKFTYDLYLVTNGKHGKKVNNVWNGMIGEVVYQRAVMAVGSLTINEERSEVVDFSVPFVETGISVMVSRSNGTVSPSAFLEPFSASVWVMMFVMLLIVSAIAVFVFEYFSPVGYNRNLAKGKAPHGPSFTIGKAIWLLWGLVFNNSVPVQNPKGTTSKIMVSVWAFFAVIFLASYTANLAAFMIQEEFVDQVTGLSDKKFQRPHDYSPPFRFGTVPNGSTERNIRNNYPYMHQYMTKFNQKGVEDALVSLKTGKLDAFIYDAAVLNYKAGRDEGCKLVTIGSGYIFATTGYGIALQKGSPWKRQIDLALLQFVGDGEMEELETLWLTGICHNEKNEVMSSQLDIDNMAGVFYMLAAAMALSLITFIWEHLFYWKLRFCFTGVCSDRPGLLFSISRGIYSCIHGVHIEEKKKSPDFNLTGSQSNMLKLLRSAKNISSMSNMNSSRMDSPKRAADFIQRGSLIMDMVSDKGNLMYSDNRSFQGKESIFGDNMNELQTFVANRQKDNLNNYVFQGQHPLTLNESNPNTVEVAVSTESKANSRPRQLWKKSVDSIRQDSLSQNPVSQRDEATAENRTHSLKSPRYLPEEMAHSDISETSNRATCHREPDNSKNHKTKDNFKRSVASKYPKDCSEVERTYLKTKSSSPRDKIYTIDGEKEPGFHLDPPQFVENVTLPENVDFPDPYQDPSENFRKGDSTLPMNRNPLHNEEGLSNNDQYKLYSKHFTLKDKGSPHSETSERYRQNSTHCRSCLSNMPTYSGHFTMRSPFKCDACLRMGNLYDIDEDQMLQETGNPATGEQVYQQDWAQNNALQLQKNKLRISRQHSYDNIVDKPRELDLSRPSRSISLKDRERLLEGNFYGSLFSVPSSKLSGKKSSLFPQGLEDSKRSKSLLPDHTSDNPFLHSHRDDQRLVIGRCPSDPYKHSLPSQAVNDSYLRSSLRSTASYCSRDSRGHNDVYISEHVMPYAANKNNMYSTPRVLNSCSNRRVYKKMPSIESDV
T2 sequence (Q12879 23-1464 P552R, other chains not shown): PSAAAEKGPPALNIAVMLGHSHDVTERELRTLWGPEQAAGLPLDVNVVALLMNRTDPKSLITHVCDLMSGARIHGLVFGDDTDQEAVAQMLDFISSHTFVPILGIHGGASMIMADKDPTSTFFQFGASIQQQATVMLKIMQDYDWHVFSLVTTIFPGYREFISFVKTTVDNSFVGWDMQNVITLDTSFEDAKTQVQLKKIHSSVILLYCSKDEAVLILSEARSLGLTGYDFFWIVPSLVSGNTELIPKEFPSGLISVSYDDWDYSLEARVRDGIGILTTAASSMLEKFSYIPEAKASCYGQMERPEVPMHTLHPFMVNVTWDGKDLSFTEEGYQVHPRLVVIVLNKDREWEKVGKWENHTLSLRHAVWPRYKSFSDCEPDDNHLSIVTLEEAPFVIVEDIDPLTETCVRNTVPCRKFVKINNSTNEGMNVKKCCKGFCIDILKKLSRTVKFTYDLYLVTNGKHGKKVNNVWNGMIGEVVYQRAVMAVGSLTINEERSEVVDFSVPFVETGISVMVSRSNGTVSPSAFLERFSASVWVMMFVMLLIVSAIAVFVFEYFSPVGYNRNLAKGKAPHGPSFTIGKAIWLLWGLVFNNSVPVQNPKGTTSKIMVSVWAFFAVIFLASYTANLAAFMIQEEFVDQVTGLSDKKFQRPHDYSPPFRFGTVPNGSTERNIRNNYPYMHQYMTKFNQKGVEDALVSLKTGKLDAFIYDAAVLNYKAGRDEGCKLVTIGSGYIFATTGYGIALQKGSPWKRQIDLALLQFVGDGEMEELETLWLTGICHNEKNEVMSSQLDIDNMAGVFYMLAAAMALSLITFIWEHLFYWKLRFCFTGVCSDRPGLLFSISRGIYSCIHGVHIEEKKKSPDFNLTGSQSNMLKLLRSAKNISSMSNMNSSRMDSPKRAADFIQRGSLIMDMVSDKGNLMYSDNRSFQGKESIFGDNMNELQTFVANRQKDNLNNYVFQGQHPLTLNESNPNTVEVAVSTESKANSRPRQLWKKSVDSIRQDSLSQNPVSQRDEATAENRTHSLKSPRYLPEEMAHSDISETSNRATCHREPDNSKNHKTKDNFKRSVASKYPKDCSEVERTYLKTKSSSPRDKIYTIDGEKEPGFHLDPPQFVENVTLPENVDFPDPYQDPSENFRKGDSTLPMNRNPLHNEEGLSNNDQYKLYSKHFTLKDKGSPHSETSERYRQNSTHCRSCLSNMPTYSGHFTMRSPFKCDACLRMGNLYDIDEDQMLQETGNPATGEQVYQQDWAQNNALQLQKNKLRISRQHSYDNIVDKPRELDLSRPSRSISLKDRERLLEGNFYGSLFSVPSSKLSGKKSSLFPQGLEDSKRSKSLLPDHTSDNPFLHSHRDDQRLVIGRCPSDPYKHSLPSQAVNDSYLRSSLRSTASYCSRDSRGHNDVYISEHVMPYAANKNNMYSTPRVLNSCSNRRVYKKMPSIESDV
T6 sequence (Q12879 23-1464 A548T, other chains not shown): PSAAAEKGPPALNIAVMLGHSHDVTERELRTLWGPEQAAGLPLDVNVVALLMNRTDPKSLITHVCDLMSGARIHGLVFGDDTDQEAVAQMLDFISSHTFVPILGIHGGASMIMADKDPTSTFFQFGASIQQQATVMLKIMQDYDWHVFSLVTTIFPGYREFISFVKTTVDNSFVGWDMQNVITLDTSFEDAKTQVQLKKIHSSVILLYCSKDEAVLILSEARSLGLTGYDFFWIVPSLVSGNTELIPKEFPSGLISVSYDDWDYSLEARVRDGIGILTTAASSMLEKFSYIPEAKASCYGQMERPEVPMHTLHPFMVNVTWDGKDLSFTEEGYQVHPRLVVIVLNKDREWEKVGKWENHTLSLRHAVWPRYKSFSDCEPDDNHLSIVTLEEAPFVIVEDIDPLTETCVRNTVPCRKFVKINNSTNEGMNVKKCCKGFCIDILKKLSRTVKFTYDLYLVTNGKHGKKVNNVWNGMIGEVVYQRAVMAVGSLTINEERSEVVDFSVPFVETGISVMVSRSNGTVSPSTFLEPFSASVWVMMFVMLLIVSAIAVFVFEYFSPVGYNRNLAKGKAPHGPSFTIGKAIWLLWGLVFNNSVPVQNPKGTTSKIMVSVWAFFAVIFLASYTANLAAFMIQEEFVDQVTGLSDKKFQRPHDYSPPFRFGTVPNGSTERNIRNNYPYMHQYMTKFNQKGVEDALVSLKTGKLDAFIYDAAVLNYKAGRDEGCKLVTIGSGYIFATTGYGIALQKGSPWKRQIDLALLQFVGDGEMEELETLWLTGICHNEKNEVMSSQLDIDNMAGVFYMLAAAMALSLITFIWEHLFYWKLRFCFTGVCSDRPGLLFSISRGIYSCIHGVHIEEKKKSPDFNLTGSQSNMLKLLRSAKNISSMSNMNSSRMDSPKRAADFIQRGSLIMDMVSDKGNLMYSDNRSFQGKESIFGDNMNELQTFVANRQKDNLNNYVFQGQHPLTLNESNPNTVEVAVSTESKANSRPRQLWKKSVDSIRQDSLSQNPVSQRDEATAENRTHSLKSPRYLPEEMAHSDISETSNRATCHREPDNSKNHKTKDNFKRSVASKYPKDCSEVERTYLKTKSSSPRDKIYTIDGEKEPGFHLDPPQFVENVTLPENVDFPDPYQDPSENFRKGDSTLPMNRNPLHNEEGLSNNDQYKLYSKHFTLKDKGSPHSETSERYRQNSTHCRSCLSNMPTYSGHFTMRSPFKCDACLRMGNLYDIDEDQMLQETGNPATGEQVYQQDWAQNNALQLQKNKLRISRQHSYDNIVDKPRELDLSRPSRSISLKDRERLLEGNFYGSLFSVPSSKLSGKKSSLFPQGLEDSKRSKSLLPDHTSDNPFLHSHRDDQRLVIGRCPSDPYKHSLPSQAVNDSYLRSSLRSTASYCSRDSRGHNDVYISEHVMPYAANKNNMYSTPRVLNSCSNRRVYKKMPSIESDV

N[C@@H](CCC(=O)O)C(=O)O [Glutamate]
EC50 [1]: 400 ± 70 nM

COc1ccc2c(c1)[C@]13CCCC[C@@H]1[C@H](C2)N(C)CC3 [Dextromethorphan]
IC50 [2, 10]: 15000 ± 4600 nM
IC50 ([3]; channel blocker, -40 mV, pH 7.4, no Mg2+, 23 °C, read-out: IC50 (n; max inhibition) / GluN2A-WT): 18000 ± 2900 nM

NC12CC3CC(CC(C3)C1)C2 [Amantadine]
IC50 [2, 10]: 86000 ± 22000 nM
IC50 ([3]; read-out: IC50 (n; max inhibition) / GluN2A-WT): 126000 ± 17000 nM

NCC(=O)O [Glycine]
EC50 [4]: 3700 ± 320 nM
EC50 ([2]; read-out: Di-heteromeric NMDA Receptors / GluN2A-P552R): 60 ± 10 nM
EC50 [5]: 180 ± 20 nM
EC50 [3]: 1400 ± 140 nM
EC50 [6]: 2400 ± 90 nM
EC50 [7]: 660 ± 70 nM
EC50 [8]: 50 ± 10 nM
EC50 [9]: 70 ± 10 nM

CNC1(c2ccccc2Cl)CCCCC1=O (stereo not drawn) [Ketamine]
IC50 [2]: 1300 ± 200 nM
IC50 [3]: 4700 ± 800 nM
